Assay results taken from PubChem BioAssay (NCI).
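Cultured in 96-well plates, cells were exposed to test compound for 48 hours across five concentrations. GI50 is the concentration that inhibits growth by half. At the TGI there is no net growth.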

Key:
Test in all cases: inhibition of tumour cell growth, NCI panel, 48 h
TK-10 renal = test system: TK-10 renal
SK-MEL-2 melanoma = test system: SK-MEL-2 melanoma
HCT-116 colon = test system: HCT-116 colon
SW-620 colon = test system: SW-620 colon
RPMI-8226 leukemia = test system: RPMI-8226 leukemia
NCI-H522 lung = test system: NCI-H522 lung
MOLT-4 leukemia = test system: MOLT-4 leukemia
CCRF-CEM leukemia = test system: CCRF-CEM leukemia
SK-MEL-28 melanoma = test system: SK-MEL-28 melanoma
EKVX NSCLC = test system: EKVX NSCLC
MALME-3M melanoma = test system: MALME-3M melanoma
U251 CNS = test system: U251 CNS
KM12 colon = test system: KM12 colon
NCI-H226 lung = test system: NCI-H226 lung
HOP-62 NSCLC = test system: HOP-62 NSCLC
PC-3 prostate = test system: PC-3 prostate
K-562 leukemia = test system: K-562 leukemia
SR leukemia = test system: SR leukemia
IGROV1 ovarian = test system: IGROV1 ovarian
UO-31 renal = test system: UO-31 renal
OVCAR-5 ovarian = test system: OVCAR-5 ovarian
MCF7 breast = test system: MCF7 breast
BT-549 breast = test system: BT-549 breast
OVCAR-4 ovarian = test system: OVCAR-4 ovarian
HL-60(TB) leukemia = test system: HL-60(TB) leukemia
OVCAR-3 ovarian = test system: OVCAR-3 ovarian
HT29 colon = test system: HT29 colon
T-47D breast = test system: T-47D breast

Work on `COC(=O)[C@]12CC[C@@H](C)[C@H](C)[C@@H]1C1=CC[C@@H]3[C@@]4(C)C[C@@H](OC(C)=O)[C@H](O)[C@@](C)(CO)[C@@H]4[C@H](O)C[C@@]3(C)[C@]1(C)CC2` yielded a GI50 (TK-10 renal) of 15 µM, a TGI (TK-10 renal) of 29 µM and a GI50 (SK-MEL-2 melanoma) of 17.7 µM. The TGI (SK-MEL-2 melanoma) was 34.1 µM, the GI50 (HCT-116 colon) was 11.8 µM and the TGI (HCT-116 colon) was 25.4 µM. For the same compound, the GI50 (SW-620 colon) was 16 µM, the TGI (SW-620 colon) was 35.6 µM and the GI50 (RPMI-8226 leukemia) was 7.86 µM. For the same compound, the TGI (RPMI-8226 leukemia) was 31.7 µM, the GI50 (NCI-H522 lung) was 11.2 µM and the TGI (NCI-H522 lung) was 26.2 µM. It also gave a GI50 (MOLT-4 leukemia) of 5.82 µM, a TGI (MOLT-4 leukemia) of 22 µM and a GI50 (CCRF-CEM leukemia) of 12.8 µM. For the same compound, the TGI (CCRF-CEM leukemia) was 36.5 µM, the GI50 (SK-MEL-28 melanoma) was 13 µM and the TGI (SK-MEL-28 melanoma) was 28.6 µM. The GI50 (EKVX NSCLC) was 10.5 µM, the TGI (EKVX NSCLC) was 24.6 µM and the GI50 (MALME-3M melanoma) was 17.2 µM. The TGI (MALME-3M melanoma) was 33 µM, the GI50 (U251 CNS) was 10.7 µM and the TGI (U251 CNS) was 23.9 µM. It also gave a GI50 (KM12 colon) of 9.95 µM, a TGI (KM12 colon) of 26.7 µM and a GI50 (NCI-H226 lung) of 16.3 µM. For the same compound, the TGI (NCI-H226 lung) was 38.2 µM, the GI50 (HOP-62 NSCLC) was 14.7 µM and the TGI (HOP-62 NSCLC) was 29.5 µM. The GI50 (PC-3 prostate) was 7.53 µM, the TGI (PC-3 prostate) was 20.5 µM and the GI50 (K-562 leukemia) was 9.18 µM. For the same compound, the TGI (K-562 leukemia) was 27.4 µM, the GI50 (SR leukemia) was 7.62 µM and the TGI (SR leukemia) was 25.5 µM. For the same compound, the GI50 (IGROV1 ovarian) was 8.87 µM, the TGI (IGROV1 ovarian) was 24.8 µM and the GI50 (UO-31 renal) was 3.58 µM. The TGI (UO-31 renal) was 17.1 µM, the GI50 (OVCAR-5 ovarian) was 13.2 µM and the TGI (OVCAR-5 ovarian) was 27.7 µM. It also gave a GI50 (MCF7 breast) of 4.95 µM, a TGI (MCF7 breast) of 20.9 µM and a GI50 (BT-549 breast) of 15 µM. For the same compound, the TGI (BT-549 breast) was 29.8 µM, the GI50 (OVCAR-4 ovarian) was 12 µM and the TGI (OVCAR-4 ovarian) was 27 µM. For the same compound, the GI50 (HL-60(TB) leukemia) was 13.9 µM, the TGI (HL-60(TB) leukemia) was 31.6 µM and the GI50 (OVCAR-3 ovarian) was 13.4 µM. For the same compound, the TGI (OVCAR-3 ovarian) was 29.9 µM, the GI50 (HT29 colon) was 5.79 µM and the TGI (HT29 colon) was 20.4 µM. The GI50 (T-47D breast) was 12.4 µM and the TGI (T-47D breast) was 28.7 µM.
